# “Also recorded” adds a separate entry of the source.
# Assays:
# T4 DNA ligase = target: T1, T4 DNA ligase (Enterobacteria phage T4, UniProt P00970); experiment: High-throughput fluorescence-based DNA joining assay, non-specific inhibitor control; type: biochemical, bacteriophage T4; details: in vitro screen, 100 μmol/L
# T1 construct: purchased NEB
# T1 sequence (P00970 1-487): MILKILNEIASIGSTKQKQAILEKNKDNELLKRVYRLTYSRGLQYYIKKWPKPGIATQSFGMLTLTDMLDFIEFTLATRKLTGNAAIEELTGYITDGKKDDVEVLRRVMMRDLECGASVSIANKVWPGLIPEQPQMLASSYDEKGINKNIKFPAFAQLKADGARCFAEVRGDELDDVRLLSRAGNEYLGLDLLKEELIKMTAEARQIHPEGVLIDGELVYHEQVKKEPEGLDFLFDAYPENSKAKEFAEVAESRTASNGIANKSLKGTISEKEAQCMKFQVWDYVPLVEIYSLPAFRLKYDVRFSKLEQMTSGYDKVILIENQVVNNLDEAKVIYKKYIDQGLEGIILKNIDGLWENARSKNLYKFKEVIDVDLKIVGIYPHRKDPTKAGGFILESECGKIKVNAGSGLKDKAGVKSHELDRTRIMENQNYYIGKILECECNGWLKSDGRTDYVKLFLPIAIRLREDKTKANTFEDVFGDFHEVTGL
# Outline: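 This counter-screen used a FRET-based DNA joining assay. Duplicate reactions held 10 pmol nicked DNA substrate and 10 units T4 DNA ligase, with or without 100 μmol/L compound. T4 ligase lacks the DNA-binding domain targeted in silico, so compounds inhibiting it were flagged as non-specific, likely DNA-binding.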
# DNA = DNA binding by displacement of ethidium bromide from DNA; details: EtBr replacement assay; 192 at 0, 50, 100 μM
# Protocol: Candidate ligase inhibitors identified by CADD were assayed for their ability to inhibit hLigI and T4 DNA ligase using a high-throughput, fluorescence energy transfer-based DNA joining assay (22). Duplicate reactions (30 μL) containing 10 pmol of nicked DNA substrate and either 0.25 pmol of hLigI or 10 units of T4 DNA ligase were incubated in the presence or absence of 100 μmol/L of the putative inhibitor. DNA binding by the candidate DNA ligase inhibitors was measured by displacement of ethidium bromide from DNA as previously described (30).
# HCT116 cells = experiment: Cell proliferation screen (SYBR Green, Biomek FX); type: cell-based, human; details: 50 μM; percentage of values obtained with DMSO alone
# Protocol: The ability of the compounds identified by CADD to inhibit proliferation of normal mammary epithelial MCF10A cells and colon carcinoma HCT116 cells was determined using a Biomek FX Laboratory Automation Workstation (Beckman Coulter, Inc., Fullerton, Calif.). On day 0, 20 μl of complete medium containing the appropriate number of cells (150-300) was plated per well of a 384-well tissue plate (Fisher Scientific, Hampton, N.H.) and incubated overnight at 37° C. with 5% CO2 and 90% humidity. Next day, day 1, compounds were prepared by serial dilution with complete medium to yield the concentration 100 μM, and 20 μl was added to each well containing 20 μl of medium and cells yielding the final concentration 50 μM in 40 μl volume. Plates were incubated for additional 3 days (days-2-5) until control cells (0.5% DMSO) reached ˜70-80% confluency. On day 6, 40 μl of lysis/detection solution containing 1.2% Igepal CA-630 (Sigma) and a 1:1000 dilution of SYBR Green I nucleic acid stain (Molecular Probes, Eugene, Oreg.) was added to each well. Following an overnight incubation at 37° C., total fluorescence was measured using a Fluorostar Galaxy plate reader with a 485 nm excitation filter and 520 nm emission filter set (BMG Labtech, Inc., Durham, N.C.). Data was exported to a custom program that determined growth inhibition by dividing each individual fluorescence value by the average of fluorescence values obtained with cells treated with DMSO alone.
# The 192 human DNA ligase inhibitors were screened in parallel for effects on proliferation and the ability to potentiate the effects of several DNA damaging agents using two cell human lines, a colon cancer line HCT116 and a normal breast epithelial cell line MCF10A using a Biomek FX Laboratory Automation Workstation as described (23). The DNA damaging agents used, methyl methanesulfonate (MMS), camptothecin, cis-platinum, 3 aminobenzamide and ionizing radiation, are representatives of classes of agents used to treat cancer. Briefly, HCT116 and MCF10A cells were plated in 96 well plates such that the cultures were about 80% confluent after 5 days incubation. Compounds were added to the cultures at either 15 μM or 50 μM 1 day after plating. After incubation for 3 days, cell lysed in a solution containing 1.2% Igepal CA-630 and SYBR green that stains DNA (1:1000, Molecular Probes, Eugene, Oreg.). Subsequently, fluorescence was measured per well. The studies with DNA damaging agents were performed as follows. […] For ionizing radiation, cells were pre-incubated with the compounds at 50 μM for 1 hour prior to exposure to 2 gray of ionizing radiation. Cultures were incubated for 3 days and then treated as above.
# hLigI = target: T2, hLigI (Homo sapiens, UniProt P18858); experiment: High-throughput fluorescence-based DNA joining (ligation) assay; type: biochemical; details: in vitro screen, 100 μmol/L; the 15 hLigI inhibitors inhibited by >50%
# T2 construct: made in house
# T2 sequence (P18858 whole entry): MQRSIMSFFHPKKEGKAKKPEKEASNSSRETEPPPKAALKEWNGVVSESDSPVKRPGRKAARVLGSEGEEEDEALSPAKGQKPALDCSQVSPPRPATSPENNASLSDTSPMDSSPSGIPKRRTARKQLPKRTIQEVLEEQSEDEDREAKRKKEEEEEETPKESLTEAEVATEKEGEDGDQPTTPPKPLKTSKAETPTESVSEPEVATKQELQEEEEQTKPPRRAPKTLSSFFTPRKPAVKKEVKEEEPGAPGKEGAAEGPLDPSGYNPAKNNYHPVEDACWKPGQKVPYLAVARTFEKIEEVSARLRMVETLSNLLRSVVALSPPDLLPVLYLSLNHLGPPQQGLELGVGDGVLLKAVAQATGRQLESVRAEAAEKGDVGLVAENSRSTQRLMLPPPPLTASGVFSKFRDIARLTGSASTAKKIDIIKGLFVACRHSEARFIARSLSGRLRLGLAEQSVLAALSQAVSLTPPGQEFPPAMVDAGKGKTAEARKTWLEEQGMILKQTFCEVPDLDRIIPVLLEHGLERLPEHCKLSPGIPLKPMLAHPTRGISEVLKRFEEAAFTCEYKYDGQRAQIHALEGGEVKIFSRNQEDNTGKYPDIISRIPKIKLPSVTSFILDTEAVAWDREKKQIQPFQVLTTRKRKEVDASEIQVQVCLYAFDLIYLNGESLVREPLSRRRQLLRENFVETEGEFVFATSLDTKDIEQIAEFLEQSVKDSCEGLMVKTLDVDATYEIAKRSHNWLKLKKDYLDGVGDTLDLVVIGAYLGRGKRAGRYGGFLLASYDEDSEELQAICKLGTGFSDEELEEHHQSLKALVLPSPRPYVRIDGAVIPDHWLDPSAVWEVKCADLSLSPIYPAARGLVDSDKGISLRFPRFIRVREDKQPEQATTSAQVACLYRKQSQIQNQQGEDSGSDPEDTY
# Outline: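 Nicked DNA substrate (10 pmol) was incubated with 0.25 pmol hLigI, with or without 100 μmol/L test compound, in duplicate. Afterwards the DNA was denatured and renatured with a 20-fold excess of unmodified oligonucleotide. Ligation forms an AF488/BHQ1 hairpin, read as reduced fluorescence at 518 nm.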
compound,measurement,setting,value
O=S(=O)(O)N=Nc1ccc2c(c1)[nH]c1ccccc12 [Compound 192],"inhibition of T4 DNA ligase, in words",T4 DNA ligase,inhibits both hLigI and T4 DNA ligase
same,DNA binding of compound (effect on DNA binding by ethidium bromide),DNA,reduced DNA binding of the DNA intercalating agent ethidium bromide; also recorded: EtBr is replaced
same,Growth_Inh % (50 μM) HCT116,HCT116 cells,70%
same,"inhibition of hLigI (DNA ligase I), in words",hLigI,inhibited hLigI; also recorded: inhibits both hLigI and T4 DNA ligase

# Source: patent publication US9757375B2, “Compounds that inhibit human DNA ligases and methods of treating cancer” (University of Maryland, Baltimore, priority 2007, dated 2017)
